Experimental data from PMC9684134, “In vitro biochemical assessment of mixture effects of two endocrine disruptors on INS-1 cells” (Scientific Reports, 2022).
Where two headings read alike, the source gives them in different places.

Assays:
INS-1 cells [1] = assay: Glucose-galactose cytotoxicity assay (MTT); conditions: for IC50: Rattus norvegicus, INS1, 48 h
Description: Sub-culturing was in ratio 4:3. Cell density was 15,000 cells/well and treated with 200 µL of the test solution that was solubilized in glucose-free RPMI medium supplemented with 5 mM glucose or 5 mM galactose. The cells were incubated further for 48 h. The spent medium was replaced with 100 µL glucose in RPMI medium. 2,4-dinitrophenol served as positive control. The cells were finally loaded with MTT as in section “Cell viability assay” but incubation took 120 min.

INS-1 cells [2] = assay: Oxidative stress: reduced glutathione by ThiolTracker Violet staining; format: cell-based, rat; conditions: 48 h; for Glutathione levels (oxidative stress summary): Table 3 summary, low and high concentration
Description: (§1) The spent medium in section “Treatment of INS-1 cells” was removed and 50 µL CellROX staining solution was added to each well according to the manufacturer’s instructions and incubated at 37 °C for 30 min. Images from nine sites per well were acquired using filter sets appropriate for DAPI (4′, 6-diamidino-2-phenylindole) and TRITC (tetramethylrhodamine-isothiocyanate) which were the fluorophors. Image acquisition was done on ImageXpress Micro XLS and analyzed using the Multi-Wavelength Scoring software (Molecular Devices). In another experiment 50 µL ThiolTracker Violet staining solution was put in each well and incubated at 37 °C for 20 min. Images from nine sites per well were acquired using filter sets appropriate for DAPI and CY5 (amine reactive fluorescent dye). Image acquisition and data analysis were as done for the CellROX orange reagent. Excitation/Emission wavelength was at 545/565 nm.

INS-1 cells [3] = assay: Oxidative stress: ROS by CellROX orange staining; format: cell-based, rat; conditions: Table 3 summary, low and high concentration, 48 h
Description: as §1

INS-1 cells [4] = assay: Glucose uptake assay (glucose oxidase); format: cell-based, rat; conditions: Table 3 summary, low and high concentration, 48 h
Description: Glucose uptake was determined in INS-1 cells by monitoring the levels of glucose remaining in the culture medium after a selected treatment period. The cell density was 30 000 per well; one row was without cells to serve as maximum glucose content. Spent medium was removed and the cells were treated with 100 µL of the test compounds at concentrations indicated in section “Treatment of INS-1 cells”. The cells were incubated for a further 48 h and 5µL spent culture medium was thereafter transferred to a new plate of 96 wells and 200 µL glucose oxidase reagent added. Incubation was at 37 °C for 20 min and absorbance was read at 520 nm. Glucose uptake was obtained as the difference in glucose concentration between wells without cells and those with cells and respective treatments.

INS-1 cells [5] = tested on: INS-1 cells
Description: (§2) TMRE is a cell permeable cationic dye that accumulates in the mitochondrial matrix according to mitochondrial membrane potential (ΔψM). Staining solution was prepared by adding 5 mL PBS, 50 µL TMRE working solution and 2 µL Hoechst 33342 solution to 5 mL of RPMI. The spent medium was removed and 50 µL staining solution was put in each well and incubated for 30 min at 37 °C. Image acquisition and data analysis were done as indicated.

INS-1 cells [6] = assay: Mitochondrial mass (MitoTracker Green staining); format: cell-based, rat; conditions: 48 h; for Mitochondrial mass (summary): Table 3 summary, all concentrations
Description: Staining solution consisted of 10 mL of PBS to which was added 1 µL MitoTracker Green (MTG) stock (1 mM in DMSO) and 2 µL Hoechst solution (10 mg/mL in DMSO). Spent medium was removed and 50 µL staining solution added to each well (96 wells) followed by incubation at 37 °C for 20 min.

INS-1 cells [7] = assay: Glucose stimulated calcium influx (Fluo-4); format: cell-based, rat; conditions: 20 mM glucose stimulation; for Intracellular calcium levels (summary): Table 3 summary, 24 h incubation; for Glucose stimulated intracellular calcium flux compared with the Blank: positive controls
Description: Fluo-4 dye is specific for intracellular Ca^2+ concentration. On binding calcium, the green fluorescence intensity increases by more than 100 folds (excitation/emission 494/[…]). Incubation was for 24 h. Staining solution was prepared by adding 20 µL Flou-4 stock solution (1 mM in DMSO) and 2 µL Hoechst solution to 10 mL of PBS. After staining, incubation was done for 30 min at 37 °C. The stain solution was removed and replaced with 50 µL PBS. Incubation was further carried out at room temperature for 20 min. Difference in fluorescence intensity between wells containing glucose and those without glucose represents calcium influx in response to glucose. Just prior to image acquisition, 20 mM glucose was added to four of the eight replicate wells and incubated at room temperature for 10 min. Image acquisition and data analyses were done as usual. Filter sets appropriate for DAPI and FITC were also used. Diazoxide and Glibenclamide were used as the positive controls.

[8] = tested on: caspase 3 activation in INS-1 cells; assay: Caspase-3 activation assay; format: cell-based, rat; conditions: 48 h
Description: Additional 100 µL test compounds were solubilized in the medium and incubated for 48 h. The spent medium was replaced with 100 µL of fix solution (4% formaldehyde in phosphate-buffered saline (PBS) and was fixed overnight; the cells were permeabilized with ice cold methanol, then washed with PBS and blocked using 1% BSA followed by incubation with the primary antibody at 1:200 dilution in blocking buffer for 2 h. The excess antibody was removed by washing with blocking buffer. Incubation was thereafter carried out with secondary antibody (FITC labelled) for 30 min and later washed with blocking buffer to remove excess antibody. Images from nine sites per well were acquired using filter sets appropriate for DAPI and FITC. Image analysis was done as in previous experiments.

INS-1 cells [9] = format: cell-based, rat; conditions: for Annexin PI: mode of cell death (summary): Table 3 summary
Description: The treated cells were sub-cultured at 4:3. Annexin V-FITC staining assay was performed as recommended by the manufacturer. Melphalan (Mel) and Etoposide (Etop) served as the positive controls. Incubation lasted 48 h. The spent medium was removed and 50 µL PI staining solution was in each well and incubated for 15 min at 37 °C followed by image acquisition and data analysis as in previous experiments. Images from nine sites per well were acquired using filter sets appropriate for DAPI, FITC and Texas red dyes.

[10] = Cell viability assay (MTT); format: cell-based; conditions: rat
Description: INS-1 cells were routinely grown at 5% CO2, 95% air at 37 °C in RPMI-1640 containing 11.1 mM glucose and supplemented with 10% foetal calf serum (FCS), 1 mM pyruvate, 10 mM 4-(2-hydroxyethyl)-1-piperazine ethane sulphonic acid (HEPES), 50 µM 2-mercaptoethanol, 100 U penicillin/mL and 100 µg streptomycin/mL. Sub-confluent cultures were trypsinized to dislodge the cells and sub-cultured at a ratio of 1:3 or 1:0.75 in other experiments. INS-1 cells were seeded into a 96-well plate at densities of 10 000, 15 000 or 30,000 cells/well. They were allowed to attach at 37 °C overnight.
The cells were incubated for 48 h with test compounds containing 20 µM or 30 µM 4-tOP and 8 µM or 12.5 µM TCS. Combination treatments (4-tOP + TCS) were 12.5 µM or 25 µM at 1:1 ratio.
Cell viability was assessed by a principle of enzymatic reduction of 3-[4, 5-dimethylthiazole-2-yl]-2, 5-diphenyltetrazolium bromide (MTT) to formazan. The treated cells respectively were loaded with 20 µL 0.5 mg/mL MTT and incubated at 37 °C for 3 h. […] The absorbance of the purple-coloured formazan was measured at 540 nm on microplate reader. IC50, (the median inhibitory concentration) was calculated with GraphPad Prism software. Data were expressed as a percentage of control.
Results were expressed as means ± SD from at least three replicate measurements. The difference between means was analyzed with ANOVA, α value = 0.05. […]

INS-1 cells [11] = assay: Mitochondrial membrane potential (TMRE staining); conditions: 48 h
Description: as §2

HepG2 human liver cells = tested on: HepG2 human liver cells; parameters: method as in PMID 27459410; conditions: cited from earlier work
[12] = parameters: method as in PMID 9894786; conditions: Ca2+-dependent binding to phosphatidylserine; cited from earlier work
[13] = high concentration (12.5 µM TCS, 30 µM 4-tOP, 25 µM Mix), 48 h
[14] = low concentration (8 µM TCS, 20 µM 4-tOP, 12.5 µM Mix), 48 h

## O=[N+]([O-])c1ccc(O)c([N+](=O)[O-])c1 [2,4-Dinitrophenol, 2,4-dinitrophenol, reference compound]
INS-1 cells [1]; read-out: IC50 Galactose
  IC50: 24.5 µM
INS-1 cells [1]; read-out: IC50 Glucose
  IC50: 46 µM

## CC(C)(C)CC(C)(C)c1ccc(O)cc1 [4-tert-Octylphenol]
INS-1 cells [2]
  Glutathione levels (oxidative stress summary): Decrease glutathione levels corroborated ROS production
INS-1 cells [3]
  ROS (oxidative stress summary): Dose dependent increase in ROS but variation high hampering statistical significance
INS-1 cells [1]; read-out: IC50 Galactose
  IC50: 34.5 µM
INS-1 cells [1]; read-out: IC50 Glucose
  IC50: 33.4 µM
INS-1 cells [1]; rat, 48 h
  Glucose-galactose differential cytotoxicity (summary): Higher IC50 in galactose than in glucose
INS-1 cells [4]
  Glucose uptake (summary): Consumption pattern as with T. No significant change in glucose consumption
INS-1 cells [5]
  Mitochondrial membrane potential MMP (summary): The increase in MMP was not substantial
INS-1 cells [6]
  Mitochondrial mass (summary): No substantial change in mitochondrial content at all concentrations relative to the untreated cells
INS-1 cells [7]
  Intracellular calcium levels (summary): No significant changes in glucose stimulated intracellular calcium levels
[8]; test substances
  Caspase 3 activation compared with the Blank: Increase in caspase 3 activation not substantial
INS-1 cells [9]; 20 µM or 30 µM, 48 h
  Induction of apoptosis compared with the Blank: failed to significantly induce apoptosis
INS-1 cells [9]
  Annexin PI: mode of cell death (summary): Cell death by 4-tOP was by necrosis
INS-1 cells [9]; [13]
  Proportion of live cells: 73.8%
INS-1 cells [9]; high concentration (30 µM 4-tOP), 48 h
  Cell death by necrosis compared with the Blank: significantly underwent necrosis
INS-1 cells [9]; [14]
  Proportion of live cells: 81.4%
[10]
  IC50 at 48 h: 32.5 µM

## CC1=NS(=O)(=O)c2cc(Cl)ccc2N1 [Diazoxide, reference compound]
INS-1 cells [7]
  Glucose stimulated intracellular calcium flux compared with the Blank: significantly increased intracellular calcium flux

## COc1cc([C@@H]2c3cc4c(cc3[C@@H](O[C@@H]3O[C@@H]5CO[C@@H](C)O[C@H]5[C@H](O)[C@H]3O)[C@H]3COC(=O)[C@H]23)OCO4)cc(OC)c1O [Etoposide, reference compound]
INS-1 cells [2]; positive control 40 µM
  GSH compared with the Blank: significant reduction of GSH
[8]; positive control 40 µM
  Caspase 3 activation compared with the Blank: significant increases in caspase 3 activation
INS-1 cells [9]; positive control 40 µM, 48 h
  Proportion of cells died by apoptosis: 17.4%
  Proportion of live cells: 42.5%

## COc1ccc(Cl)cc1C(=O)NCCc1ccc(S(=O)(=O)NC(=O)NC2CCCCC2)cc1 [Glibenclamide, reference compound]
INS-1 cells [7]
  Glucose stimulated intracellular calcium flux compared with the Blank: significantly increased intracellular calcium flux

## N[C@@H](Cc1ccc(N(CCCl)CCCl)cc1)C(=O)O [Melphalan, reference compound]
INS-1 cells [2]; positive control 40 µM
  GSH compared with the Blank: significant reduction of GSH
INS-1 cells [11]; positive control 40 µM
  Mitochondrial membrane potential ΔΨM (MMP) compared to the Blank: Significant loss of mitochondrial membrane potential
INS-1 cells [6]; positive control 40 µM
  Mitochondrial mass relative to the Blank: significantly increased mitochondrial mass
INS-1 cells [9]; positive control 40 µM, 48 h
  Proportion of cells died by apoptosis: 15.7%
  Proportion of live cells: 34.5%

## Oc1cc(Cl)ccc1Oc1ccc(Cl)cc1Cl [Triclosan]
INS-1 cells [2]
  Glutathione levels (oxidative stress summary): Decreased glutathione levels corroborated ROS production
INS-1 cells [2]; high concentration (12.5 µM TCS)
  GSH compared with the Blank: significant reduction of GSH
INS-1 cells [11]; Table 3 summary
  Mitochondrial membrane potential MMP (summary): Significant decrease in MMP at the high concentration. only
INS-1 cells [11]; high concentration (12.5 µM TCS, 25 µM Mix)
  Mitochondrial membrane potential ΔΨM (MMP) compared to the Blank: Significant loss of mitochondrial membrane potential
INS-1 cells [3]
  ROS (oxidative stress summary): Dose dependent increase in ROS but variation high hampering statistical significance
INS-1 cells [1]; read-out: IC50 Galactose
  IC50: 8.23 µM
INS-1 cells [1]; read-out: IC50 Glucose
  IC50: 11.7 µM
INS-1 cells [1]; Table 3 summary
  Glucose-galactose differential cytotoxicity (summary): Increased cytotoxicity in galactose medium indicative of potential mitochondrial toxicity
INS-1 cells [4]
  Glucose uptake (summary): Decreased glucose consumption at high concentration, increase at low concentration but not substantial compared with Blank
HepG2 human liver cells
  IC50: 24.5 µM
INS-1 cells [6]
  Mitochondrial mass (summary): No substantial change in mitochondrial content at all the concentrations relative to the untreated cells
INS-1 cells [7]
  Intracellular calcium levels (summary): The reduction in glucose stimulated intracellular calcium flux was not substantial
[8]; test substances
  Caspase 3 activation compared with the Blank: Increase in caspase 3 activation not substantial
INS-1 cells [9]
  Annexin PI: mode of cell death (summary): TCS induced cell death by apoptosis
INS-1 cells [9]; high concentration (12.5 µM TCS, 25 µM Mix), 48 h
  Proportion of cells died by apoptosis: 16.6%
INS-1 cells [9]; [13]
  Proportion of live cells: 43.7%
INS-1 cells [9]; [14]
  Proportion of live cells: 81.2%
[10]; INS-1 cells, MTT, 48 h, read-out: IC50 for cytotoxicity against INS-1 cells
  IC50 at 48 h: 12.7 µM

## Annexin V: 35 kDa Ca2+-dependent phospholipid binding protein used to detect phosphatidylserine
[12]
  Kd: 0.007 µM
